From patent US9150555B2, “Amide derivative and use thereof” (Mitsubishi Tanabe Pharma Corporation, priority 2010, dated 2015)

Key:
[1] = biological target: hERG current in hERG-expressed HEK 293 cells (Homo sapiens, UniProt Q12809)
[2] = tested on: IL-17 production of mouse spleen cells stimulated by rm-IL-23; assay: Production of IL-17 induced when mouse spleen cells were stimulated by recombinant mouse interleukin-23 (rm-IL-23); format: cell-based; settings: inhibition of IL-17 production; DBA/1J mouse spleen cells, rm-IL-23 1 nmol/L, 72 hours, ELISA
Procedure, shortened: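 Spleen cells from 6-7 week-old male DBA/1J mice, 2×10^5 cells/well in 10% FCS RPMI1640, cultured 72 h at 37° C with compound (1 to 1,000 nmol/L) plus 1 nmol/L rm-IL-23. IL-17 in supernatant by ELISA; viability by WST-8 absorbance at 450 nm; IC50 by linear regression of inhibition rate.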

Sequence of hERG current in hERG-expressed HEK 293 cells (Q12809 whole entry): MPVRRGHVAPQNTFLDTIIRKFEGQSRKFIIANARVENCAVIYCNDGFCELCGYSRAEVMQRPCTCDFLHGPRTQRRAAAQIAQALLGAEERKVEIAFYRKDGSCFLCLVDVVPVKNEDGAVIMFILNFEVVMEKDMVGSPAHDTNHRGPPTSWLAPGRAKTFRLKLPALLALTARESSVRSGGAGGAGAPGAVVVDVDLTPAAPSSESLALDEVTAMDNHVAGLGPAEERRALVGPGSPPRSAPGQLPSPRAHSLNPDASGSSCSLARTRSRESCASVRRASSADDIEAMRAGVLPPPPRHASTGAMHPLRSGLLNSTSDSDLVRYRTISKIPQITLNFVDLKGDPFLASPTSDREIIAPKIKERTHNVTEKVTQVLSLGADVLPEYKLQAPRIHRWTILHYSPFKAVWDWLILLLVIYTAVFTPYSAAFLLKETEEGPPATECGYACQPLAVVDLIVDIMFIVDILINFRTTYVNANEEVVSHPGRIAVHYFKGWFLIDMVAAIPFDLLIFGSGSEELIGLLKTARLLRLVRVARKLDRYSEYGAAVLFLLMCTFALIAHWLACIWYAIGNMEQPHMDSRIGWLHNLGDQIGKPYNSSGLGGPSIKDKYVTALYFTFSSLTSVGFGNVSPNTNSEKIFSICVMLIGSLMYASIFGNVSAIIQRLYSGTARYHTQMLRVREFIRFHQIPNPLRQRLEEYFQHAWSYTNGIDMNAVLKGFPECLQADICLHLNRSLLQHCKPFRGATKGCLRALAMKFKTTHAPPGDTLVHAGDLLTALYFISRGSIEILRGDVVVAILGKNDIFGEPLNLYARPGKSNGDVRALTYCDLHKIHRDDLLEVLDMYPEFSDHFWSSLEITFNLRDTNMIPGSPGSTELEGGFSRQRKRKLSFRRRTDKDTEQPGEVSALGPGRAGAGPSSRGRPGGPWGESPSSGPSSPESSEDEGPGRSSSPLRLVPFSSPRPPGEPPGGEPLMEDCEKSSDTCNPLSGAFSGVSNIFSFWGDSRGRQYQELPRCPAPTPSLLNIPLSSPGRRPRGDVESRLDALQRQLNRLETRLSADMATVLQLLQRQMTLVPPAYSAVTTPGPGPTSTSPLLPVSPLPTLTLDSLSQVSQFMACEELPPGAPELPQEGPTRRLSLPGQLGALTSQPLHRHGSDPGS

- IC50 [2]: 182 nM
SMILES: COCOC1CCC(C#N)(c2ccc(NC(=O)c3cnn(-c4ccc(C)cc4)c3C)cn2)CC1 (centres unmarked) [Example D3, N-{6-[r-1-Cyano-c-4-(methoxymethoxy)cyclohexyl]pyridin-3-yl}-5-methyl-1-(4-methylphenyl)-1H-pyrazole-4-carboxamide]
- hERG inhibition rate (%) (1 μM) [1]: 7.2%
